The text below walks through data of PMC4807618 (Angewandte Chemie (International ed. in English), 2016).

Molecules are shown by their SMILES.

The subject of assay [1] is NA activity of oseltamivir-susceptible (wild-type) H1N1 influenza virus A/Brisbane/59/2007. Type of assay: biochemical.
Assay [2] concerns NA activity of oseltamivir-susceptible (wild-type) H1N1 influenza virus A/Netherlands/049/2008. Type of assay: biochemical.

With `CCn1cc(C(=O)O)c(=O)c2ccc(C)nc21` [Nalidixic acid, nalidixic acid], the “effect on NA activity” value in assay [1] and in assay [2] was “no effect” throughout.
For `CCN[C@H]1C[C@H](C)S(=O)(=O)c2sc(S(N)(=O)=O)cc21` [Dorzolamide, dorzolamide], the “effect on NA activity” value in assay [1] and in assay [2] was “no effect” in each case.
